Reference: US20100172889A1, “DEGRADABLE BIOMOLECULE COMPOSITIONS” (priority 2008, published 2010)

Tested on: cellulase C
Conditions: PHMB present in lyophilized cellulose film with cellulase C
Description: Two test materials (A and B) were prepared. Material A is a lyophilized cellulose film with cellulase C, and material B is a lyophilized cellulose film with cellulase C plus antiseptic Polyhexamethylene Biguanide (PHMB). Lyophilized cellulose samples A and B were incubated under conditions 1 and 2 for one month. Using media of tryptic soy agar, the samples were put in the solution to perform enzymatic degradation. On the 2nd, 8th, and 14th day, the degrading solution was taken out and plated on the agar media. The agar media plates were incubated for one month according to condition 3.

Polyhexamethylene Biguanide [PHMB]
reduction in cellulase enzyme activity: no observable reduction in cellulase enzyme activity
